Consider 18 molecules from patent publication US6265617A, “Process for the preparation of 3,5,5-trimethylcyclohexa-3-en-1-one (β-isophorone) by isomerization of 3,5,5- trimethylcyclohexa-2-en-1-one (α-isophorone)” (Degussa-Huls Aktiengesellschaft, priority 1998, dated 2001).

A short description of the experiment: Catalyst activity in liquid-phase isomerization of α-isophorone to β-isophorone. The conditions noted are these: for Rate of formation of β-IP: boiling point, normal pressure, 25 vol.% withdrawal. The source says:
The apparatus for carrying out the isomerization consists of a mushroom-shaped heater, an isomerization flask with attached distillation column, through which a primary mixture composed of α-IP and β-IP is withdrawn, and a pump for recirculating the unreacted α-isophorone left after the purifying distillation of β-IP. […] The suspension is heated to boiling point at normal pressure and the quantity of the α-IP delivered by a Telab pump is coordinated with the quantity of the distillate withdrawn.
The primary distillate obtained is conveyed to a distillation column operating at a partial vacuum of 5 mbar to 100 mbar. […] The bottom product consisting of unreacted α-isophorone is returned to the isomerization reactor.
Technical sodium hydroxide in various concentrations is stirred into α-IP in the apparatus already described above. With the identical continuous procedure (see Example 1), at the top of the isomerization unit a withdrawal rate of 25 vol.% of a primary distillate is established, based on the quantity of isomerization and the reflux ratio.
Technical potassium carbonate in various concentrations is stirred into α-IP in the apparatus already described above. With the identical continuous procedure (see Example 1), at the top of the isomerization unit a withdrawal rate of 25 vol.% of a primary distillate is established, based on the quantity of isomerization and the reflux ratio.
Various catalysts containing alkali-metal cations are compared with regard to their catalytic activity during the isomerization under conditions corresponding to those in the previous Examples.
Various alkali-metal bases and alkaline-earth bases used as catalysts are compared with regard to their catalytic activity during the isomerization under conditions corresponding to those in the previous Examples.
Various catalysts containing alkali-metal cations and the elements are compared with regard to their catalytic activity during the isomerization under conditions corresponding to those in the previous Examples.

Setting [1] is: 2 × 10^-2 mol.% catalyst per mol α-IP.
Where [2] appears, read: 0.2 mmol K2CO3 for 1 mol α-IP, illustrative calculation.
Setting [3] is: 2 × 10^-0 mol.% catalyst per mol α-IP.
The mark [4] stands for this setting: 2 × 10^-1 mol.% catalyst per mol α-IP.

Turning to `[Ca+2].[OH-].[OH-]` [Ca(OH)2], the “Rate of formation of β-IP” value under setting [1] is given as 41.1 g β-IP/h/liter α-IP.

On to `O=C(O)O` [K2 CO3, potassium carbonate], for which the “improved space-time yield YR-Z based on the volume of the educt solution used” value is 80 g β-IP/h per kg α-IP. Also, under setting [2], the “conversion, β-isophorone per kg of catalyst used and per hour” value was “approximately 422.15 kg”; the β-IP formation was 74 g β-IP/h/liter; the “β-IP formation per kg solution” value is recorded as 80.43 g β-IP/h/kg solution. Besides, under setting [3], the “Rate of formation of β-IP” value stood at 68.8 g β-IP/h/liter α-IP. In addition, the “Rate of formation of β-IP” value under setting [4] came out at 76.4 g β-IP/h/liter α-IP. In addition, under setting [1], the “Rate of formation of β-IP” value is 73.8 g β-IP/h/liter α-IP.

As to `O=C(O)O` [KHCO3], the “Rate of formation of β-IP” value under setting [1] is 64.4 g β-IP/h/liter α-IP.

In the case of `[K+].[OH-]` [KOH], the “Rate of formation of β-IP” value under setting [1] amounted to 66.9 g β-IP/h/liter α-IP.

Take `O=C(O)O` [Li2 CO3]: the “Rate of formation of β-IP” value under setting [1] was found to be 48.3 g β-IP/h/liter α-IP.

On to `[AlH4-].[Li+]` [LiAIH4], for which the “Rate of formation of β-IP” value under setting [1] is 43.3 g β-IP/h/liter α-IP.

For the molecule `[BH4-].[Li+]` [LiBH4], the “Rate of formation of β-IP” value under setting [1] amounted to 46.1 g β-IP/h/liter α-IP.

For `[Li+].[OH-]` [LiOH], the “Rate of formation of β-IP” value under setting [1] turned out to be 61.3 g β-IP/h/liter α-IP.

With `[Mg+2].[OH-].[OH-]` [Mg(OH)2], the “Rate of formation of β-IP” value under setting [4] came to 9.3 g β-IP/h/liter α-IP and the “Rate of formation of β-IP” value under setting [1] is listed as 8.2 g β-IP/h/liter α-IP.

As to `O=C(O)O` [Na2 CO3, sodium carbonate], the “calculated yield based on the quantity of catalyst used, Yβ-IP” value (0.2 mol.% catalyst, continuous operation) is on record as 229.7 kg β-IP/h/kgcat. The “space-time yield (per hour and quantity of catalyst used) Y” value (1 mol.% catalyst) is given as 15.357 kg β-IP/h/kg catalyst. Where the note is “1 mol.% catalyst”, the “space-time yield YR-Z based on α-IP used” value turned out to be 0.086 kg β-IP/h/liter. The “Rate of formation of β-IP” value under setting [3] is 72 g β-IP/h/liter α-IP and the “Rate of formation of β-IP” value under setting [1] stood at 47.4 g β-IP/h/liter α-IP.

On to `CC(=O)O` [Na(CH3 CO2)], for which the “Rate of formation of β-IP” value under setting [1] is 49.2 g β-IP/h/liter α-IP.

For the molecule `CO` [Na(OMe)], the “Rate of formation of β-IP” value under setting [1] amounted to 46.9 g β-IP/h/liter α-IP.

Turning to `O=C(O)O` [NaHCO3], the “Rate of formation of β-IP” value under setting [1] stood at 55.1 g β-IP/h/liter α-IP.

Consider `[H-].[Na+]` [NaH], for which, under setting [1], the “Rate of formation of β-IP” value is given as 58.6 g β-IP/h/liter α-IP.

Consider `[NH2-].[Na+]` [NaNH2, sodium amide], for which the “Rate of formation of β-IP” value under setting [1] is listed as 49.6 g β-IP/h/liter α-IP.

Consider `[Na+].[OH-]` [NaOH, sodium hydroxide], for which the “Rate of formation of β-IP” value by setting is: under setting [4], 79.5 g β-IP/h/liter α-IP; under setting [1], 54.6 g β-IP/h/liter α-IP.

With `[Na]` [Na], under setting [1], the “Rate of formation of β-IP” value is given as 53.7 g β-IP/h/liter α-IP.

Regarding `O=S(=O)([O-])O.[K+]` [kHSO4], the “Rate of formation of β-IP” value under setting [1] is on record as 44.7 g β-IP/h/liter α-IP.
